Target: human TPH1 (Homo sapiens (Human), UniProt P17752)
Assay: Biochemical in vitro assay using fluorescence readout (TPH1 inhibition)
Conditions: full length human TPH1, 40 μM L-tryptophan, 15° C., 60 minutes, fluorescence at 540 nm; mean if determined several times

human TPH1, sequence (P17752 whole entry): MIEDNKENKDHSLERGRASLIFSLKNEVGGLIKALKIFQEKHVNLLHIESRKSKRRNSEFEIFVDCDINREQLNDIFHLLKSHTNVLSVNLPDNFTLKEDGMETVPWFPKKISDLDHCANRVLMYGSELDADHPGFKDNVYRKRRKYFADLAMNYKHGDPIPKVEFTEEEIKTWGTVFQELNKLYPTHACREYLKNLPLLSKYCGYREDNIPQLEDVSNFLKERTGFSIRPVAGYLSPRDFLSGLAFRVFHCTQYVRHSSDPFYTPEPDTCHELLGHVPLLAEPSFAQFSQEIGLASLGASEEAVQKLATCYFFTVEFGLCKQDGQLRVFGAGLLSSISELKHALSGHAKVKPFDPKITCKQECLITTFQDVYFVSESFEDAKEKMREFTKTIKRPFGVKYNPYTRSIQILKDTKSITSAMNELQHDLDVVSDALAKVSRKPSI

Question: `Cc1nn2c3c(nc2s1)CCN(C(=O)COc1ccc(N2CCOCC2)nc1Cl)C3c1ncc(C(=O)N(C)C)s1` (stereo not shown) [Example 1.37.5, 2-(6-(2-((2-Chloro-6-morpholinopyridin-3-yl)oxy)acetyl)-2-methyl-5,6,7,8-tetrahydro-[1,3,4]thiadiazolo[2′,3′:2,3]imidazo[4,5-c]pyridin-5-yl)-N,N-dimethylthiazole-5-carboxamide] was tested. Which IC50 did it give?
Answer: Its IC50 is 9 nM.

Question: With `Cc1nn2c3c(nc2s1)CCN(C(=O)COc1cccnc1Cl)C3c1cnc(N(C)C)s1` (stereo not shown) [Example 1.22.7, 2-((2-Chloropyridin-3-yl)oxy)-1-(5-(2-(dimethylamino)thiazol-5-yl)-2-methyl-7,8-dihydro[1,3,4]thiadiazolo[2′,3′:2,3]imidazo[4,5-c]pyridin-6(5H)-yl)ethanone] as the compound, how does the IC50 read?
Answer: The IC50 was 81 nM.

Question: Which IC50 does the source give for `Cc1nn2c3c(nc2s1)CCN(C(=O)COc1ccc(N2CC(F)(F)C2)nc1Cl)C3c1cc(C(=O)N(C)C)cs1` (stereo not shown) [Example 1.9.2, 5-(6-(2-((2-Chloro-6-(3,3-difluoroazetidin-1-yl)pyridin-3-yl)oxy)acetyl)-2-methyl-5,6,7,8-tetrahydro-[1,3,4]thiadiazolo[2′,3′:2,3]imidazo[4,5-c]pyridin-5-yl)-N,N-dimethylthiophene-3-carboxamide] here?
Answer: The IC50 was 32 nM.

Question: `Cc1nn2c3c(nc2s1)CCN(C(=O)COc1ccc(N2CCCC2=O)nc1Cl)C3c1ccc(Cl)cc1F` (stereo not shown) [Example 1.4.17, 1-(6-Chloro-5-(2-(5-(4-chloro-2-fluorophenyl)-2-methyl-7,8-dihydro-[1,3,4]thiadiazolo[2′,3′:2,3]imidazo[4,5-c]pyridin-6(5H)-yl)-2-oxoethoxy)pyridin-2-yl)pyrrolidin-2-one] was tested. Which IC50 did it give?
Answer: Its IC50 is 2 nM.

Question: For `Cc1nn2c3c(nc2s1)CCN(C(=O)COc1ccc(S(N)(=O)=O)nc1Cl)C3c1ccc(Cl)cc1F` (stereo not shown) [Example 1.4.12, 6-Chloro-5-(2-(5-(4-chloro-2-fluorophenyl)-2-methyl-7,8-dihydro-[1,3,4]thiadiazolo[2′,3′:2,3]imidazo[4,5-c]pyridin-6(5H)-yl)-2-oxoethoxy)pyridine-2-sulfonamide], which IC50 is on record?
Answer: Its IC50 is 57 nM.

Question: `CNC(=O)c1csc(C2c3c(nc4sc(C)nn34)CCN2C(=O)COc2ccc(C(F)(F)F)cc2Cl)n1` (stereo not shown) [Example 1.44.1, 2-(6-(2-(2-Chloro-4-(trifluoromethyl)phenoxy)acetyl)-2-methyl-5,6,7,8-tetrahydro-[1,3,4]thiadiazolo[2′,3′:2,3]imidazo[4,5-c]pyridin-5-yl)-N-methylthiazole-4-carboxamide] was tested. Which IC50 did it give?
Answer: The IC50 was 311 nM.

Same assay, conditions: human TPH1, fluorescence readout

Question: How did the IC50 turn out when `CCc1cc(F)ccc1OCC(=O)N1CCc2nc3sccn3c2C1c1ccc(C)cc1F` (stereo not shown) [Example 6.10.4, 2-(2-ethyl-4-fluorophenoxy)-1-(5-(2-fluoro-4-methyl-phenyl)-7,8-dihydrothiazolo[2′,3′:2,3]imidazo[4,5-c]-pyridin-6(5H)-yl)ethanone] was run?
Answer: Its IC50 is 6 nM.

Question: With `O=C(COc1ccc(CN2CCOCC2)nc1Cl)N1CCc2nc3sccn3c2C1c1cc2cccnc2s1` (stereo not shown) [Example 6.14.4, 2-((2-chloro-6-(morpholinomethyl)pyridin-3-yl)oxy)-1-(5-(thieno[2,3-b]pyridin-2-yl)-7,8-dihydrothiazolo-[2′,3′:2,3]imidazo[4,5-c]pyridin-6(5H)-yl)ethanone] as the compound, how does the IC50 read?
Answer: Its IC50 is 38 nM.

Question: Which IC50 does the source give for `CCc1nc(N2CCCS2(=O)=O)ccc1OCC(=O)N1CCc2nc3sc(CF)nn3c2C1c1ccc(Cl)cc1F` (stereo not shown) [Example 7.1.3, 1-(5-(4-chloro-2-fluorophenyl)-2-(fluoromethyl)-7,8-dihydro-[1,3,4]thiadiazolo[2′,3′:2,3]imidazo[4,5-c]pyridin-6(5H)-yl)-2-((6-(1,1-dioxidoisothiazolidin-2-yl)-2-ethylpyridin-3-yl)oxy)ethan-1-one] here?
Answer: The IC50 was 6 nM.

Question: With `COCc1ccc(C2c3c(nc4sc(C)nn34)CCN2C(=O)COc2ccc(NS(C)(=O)=O)nc2Cl)c(F)c1` (stereo not shown) [Example 1.82.1, N-(6-chloro-5-(2-(5-(2-fluoro-4-(methoxymethyl)phenyl)-2-methyl-7,8-dihydro-[1,3,4]thiadiazolo[2′,3′:2,3]imidazo[4,5-c]pyridin-6(5H)-yl)-2-oxoethoxy)pyridin-2-yl)methanesulfonamide] as the compound, how does the IC50 read?
Answer: The IC50 was 17 nM.

Question: How did the IC50 turn out when `CCc1nc(C(F)F)ccc1OCC(=O)N1CCc2nc3sc(C)nn3c2C1c1ccc(Cl)cc1F` (stereo not shown) [Example 1.4.6, 1-(5-(4-chloro-2-fluorophenyl)-2-methyl-7,8-dihydro-[1,3,4]thiadiazolo[2′,3′:2,3]imidazo[4,5-c]pyridin-6(5H)-yl)-2-((6-(difluoromethyl)-2-ethylpyridin-3-yl)oxy)ethanone] was run?
Answer: The IC50 was 11 nM.

Question: How did the IC50 turn out when `CCOC(=O)c1csc(C2c3c(nc4sc(C)nn34)CCN2C(=O)COc2ccc(C(F)(F)F)cc2Cl)n1` (stereo not shown) [Example 1.27.3, ethyl 2-(6-(2-(2-chloro-4-(trifluoromethyl)phenoxy)acetyl)-2-methyl-5,6,7,8-tetrahydro-[1,3,4]thiadiazolo[2′,3′:2,3]imidazo[4,5-c]pyridin-5-yl)thiazole-4-carboxylate] was run?
Answer: The IC50 was 245 nM.

Question: `CCc1nc(N2CCCS2(=O)=O)ccc1OCC(=O)N1CCc2nc3sc(CF)nn3c2C1c1sc(C)nc1C` (stereo not shown) [Example 7.4.3, 1-(5-(2,4-dimethylthiazol-5-yl)-2-(fluoromethyl)-7,8-dihydro-[1,3,4]thiadiazolo[2′,3′:2,3]imidazo[4,5-c]pyridin-6(5H)-yl)-2-((6-(1,1-dioxidoisothiazolidin-2-yl)-2-ethylpyridin-3-yl)oxy)ethanone] was tested. Which IC50 did it give?
Answer: The IC50 was 8 nM.

Question: For `Cc1cnc(C2c3c(nc4sc(C)nn34)CCN2C(=O)COc2ccc(N3CCOCC3)nc2Cl)c(F)c1` (stereo not shown) [Example 1.31.2, 2-((2-chloro-6-morpholinopyridin-3-yl)oxy)-1-(5-(3-fluoro-5-methylpyridin-2-yl)-2-methyl-7,8-dihydro-[1,3,4]thiadiazolo [2′,3′:2,3]imidazo[4,5-c]pyridin-6(5H)-yl)ethanone], which IC50 is on record?
Answer: Its IC50 is 5 nM.

Question: Which IC50 does the source give for `CCc1nc(Cl)ncc1OCC(=O)N1CCc2nc3sc(C)nn3c2[C@@H]1c1ncc(C)cc1F` [Example 1.31.18, (R)-2-((2-chloro-4-ethylpyrimidin-5-yl)oxy)-1-(5-(3-fluoro-5-methylpyridin-2-yl)-2-methyl-7,8-dihydro-[1,3,4]thiadiazolo[2′,3′:2,3]imidazo[4,5-c]pyridin-6(5H)-yl)ethanone] here?
Answer: The IC50 was 49 nM.

Question: `CCc1nc(NS(C)(=O)=O)ccc1OCC(=O)N1CCc2nc3sc(C)nn3c2[C@@H]1c1ncc(C)cc1F` [Example 1.31.16, (R)-N-(6-ethyl-5-(2-(5-(3-fluoro-5-methylpyridin-2-yl)-2-methyl-7,8-dihydro-[1,3,4]thiadiazolo[2′,3′:2,3]imidazo[4,5-c]pyridin-6(5H)-yl)-2-oxoethoxy)pyridin-2-yl)methanesulfonamide] was tested. Which IC50 did it give?
Answer: The IC50 was 18 nM.

Question: How did the IC50 turn out when `CNC(=O)c1cc(F)c(C2c3c(nc4sc(C)nn34)CCN2C(=O)COc2ccc(N3CC(F)(F)C3)nc2Cl)s1` (stereo not shown) [Example 1.25.5, 5-(6-(2-((2-chloro-6-(3,3-difluoroazetidin-1-yl)pyridin-3-yl)oxy)acetyl)-2-methyl-5,6,7,8-tetrahydro-[1,3,4]thiadiazolo [2′,3′:2,3]imidazo[4,5-c]pyridin-5-yl)-4-fluoro-N-methylthiophene-2-carboxamide] was run?
Answer: Its IC50 is 7 nM.

Question: How did the IC50 turn out when `COc1nc(NS(C)(=O)=O)ccc1OCC(=O)N1CCc2nc3sc(C)nn3c2[C@@H]1c1ncc(C)cc1F` [Example 1.31.20, (R)-N-(5-(2-(5-(3-fluoro-5-methylpyridin-2-yl)-2-methyl-7,8-dihydro-[1,3,4]thiadiazolo[2′,3′:2,3]imidazo[4,5-c]pyridin-6(5H)-yl)-2-oxoethoxy)-6-methoxypyridin-2-yl)methanesulfonamide] was run?
Answer: The IC50 was 77 nM.

Question: How did the IC50 turn out when `Cc1ccc(C2c3c(nc4sccn34)CCN2C(=O)COc2cccnc2Cl)c(F)c1` (stereo not shown) [Example 6.10.3, 2-((2-chloropyridin-3-yl)oxy)-1-(5-(2-fluoro-4-methyl-phenyl)-7,8-dihydrothiazolo[2′,3′:2,3]imidazo[4,5-c]-pyridin-6(5H)-yl)ethanone] was run?
Answer: The IC50 was 14 nM.

Question: For `O=C(COc1cccnc1Cl)N1CCc2nc3sccn3c2C1c1ccc(C(F)F)cc1F` (stereo not shown) [Example 6.16.3, 2-((2-chloropyridin-3-yl)oxy)-1-(5-(4-(difluoromethyl)-2-fluorophenyl)-7,8-dihydrothiazolo[2′,3′:2,3]imidazo[4,5-c]pyridin-6(5H)-yl)ethanone], which IC50 is on record?
Answer: The IC50 was 15 nM.

Question: For `Cc1nn2c3c(nc2s1)CCN(C(=O)COc1ccc(N2CCOCC2)nc1Cl)C3c1sc(C(=O)N(C)C)cc1F` (stereo not shown) [Example 1.24.1, 5-(6-(2-((2-chloro-6-morpholinopyridin-3-yl)oxy)acetyl)-2-methyl-5,6,7,8-tetrahydro-[1,3,4]thiadiazolo[2′,3′:2,3]imidazo[4,5-c]pyridin-5-yl)-4-fluoro-N,N-dimethylthiophene-2-carboxamide], which IC50 is on record?
Answer: The IC50 was 2 nM.

Question: `Cc1nn2c3c(nc2s1)CCN(C(=O)COc1ccc(NS(C)(=O)=O)nc1Cl)C3c1cncs1` (stereo not shown) [Example 1.39.1, N-(6-chloro-5-(2-(2-methyl-5-(thiazol-5-yl)-7,8-dihydro-[1,3,4]thiadiazolo[2′,3′:2,3]imidazo[4,5-c]pyridin-6(5H)-yl)-2-oxoethoxy)pyridin-2-yl)methanesulfonamide] was tested. Which IC50 did it give?
Answer: The IC50 was 101 nM.

Question: For `CCN(CC)C(=O)c1ccc(OCC(=O)N2CCc3nc4sc(C)nn4c3[C@@H]2c2sccc2F)c(Cl)n1` [Example 1.23.14, (R)-6-chloro-N,N-diethyl-5-(2-(5-(3-fluorothiophen-2-yl)-2-methyl-7,8-dihydro-[1,3,4]thiadiazolo[2′,3′:2,3]imidazo[4,5-c]pyridin-6(5H)-yl)-2-oxoethoxy)picolinamide], which IC50 is on record?
Answer: The IC50 was 19 nM.

Question: How did the IC50 turn out when `COC(=O)c1cnc(C2c3c(nc4sc(C)nn34)CCN2C(=O)COc2ccc(C(F)(F)F)cc2Cl)s1` (stereo not shown) [Example 1.28.2, Methyl 2-(6-(2-(2-chloro-4-(trifluoromethyl)phenoxy)acetyl)-2-methyl-5,6,7,8-tetrahydro-[1,3,4]thiadiazolo [2′,3′:2,3]imidazo[4,5-c]pyridin-5-yl)thiazole-5-carboxylate] was run?
Answer: Its IC50 is 40 nM.

Question: `Cc1nn2c3c(nc2s1)CCN(C(=O)COc1ccc(N2CCOCC2)cc1Cl)C3c1cnc(C2CC2)nc1C` (stereo not shown) [Example 1.10.4, 2-(2-chloro-4-morpholinophenoxy)-1-(5-(2-cyclopropyl-4-methylpyrimidin-5-yl)-2-methyl-7,8-dihydro-[1,3,4]thiadiazolo [2′,3′:2,3]imidazo[4,5-c]pyridin-6(5H)-yl)ethanone] was tested. Which IC50 did it give?
Answer: Its IC50 is 18 nM.

Reference: patent publication US9765092B2, “Tricyclic piperidine compounds” (ACTELION PHARMACEUTICALS LTD, priority 2013, dated 2017)
